Reference: ChEMBL document CHEMBL1201862, “PubChem BioAssay data set” (2004)
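Growth conditions: 96-well plates. Treatment: test compound, 48 hours, 5 concentrations. Analysis: linear interpolation between bracketing concentrations; unreached endpoints set to highest concentration. GI50: concentration for 50% inhibition of growth.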 The source made the active and inactive calls. No stated cut-off is given here; in the data, active = GI50 up to about 1.1 µM and inactive = higher.

Assays:
Assay in all cases: NCI tumour cell line growth inhibition, 48 h
SK-MEL-5 = tested on: SK-MEL-5
OVCAR-3 = tested on: OVCAR-3
SNB-19 = tested on: SNB-19
NCI-H460 = tested on: NCI-H460
UACC-62 = tested on: UACC-62
OVCAR-4 = tested on: OVCAR-4
NCI-H522 = tested on: NCI-H522
786-0 = tested on: 786-0
A549 = tested on: A549
NCI-H226 = tested on: NCI-H226
HOP-92 = tested on: HOP-92
SW-620 = tested on: SW-620
A498 = tested on: A498
SF-268 = tested on: SF-268
CAKI-1 = tested on: CAKI-1
HCT-116 = tested on: HCT-116
KM12 = tested on: KM12
UO-31 = tested on: UO-31
SR = tested on: SR

SMILES | GI50 (SK-MEL-5) | GI50 (OVCAR-3) | GI50 (SNB-19) | GI50 (NCI-H460) | GI50 (UACC-62) | GI50 (OVCAR-4) | GI50 (NCI-H522) | GI50 (786-0) | GI50 (A549) | GI50 (NCI-H226) | GI50 (HOP-92) | GI50 (SW-620) | GI50 (A498) | GI50 (SF-268) | GI50 (CAKI-1) | GI50 (HCT-116) | GI50 (KM12) | GI50 (UO-31) | GI50 (SR)
CC(C)(C)C(=O)N1C(C(=O)O)Cc2ccccc2[C@@H]1Cc1ccccc1 (stereo partly specified) | > 100 µM (inactive) | > 100 µM (inactive) | > 100 µM (inactive) | > 100 µM (inactive) | > 100 µM (inactive) | > 100 µM (inactive) | > 100 µM (inactive) | > 100 µM (inactive) | > 100 µM (inactive) | 45.6 µM (inactive) | > 100 µM (inactive) | > 100 µM (inactive) | > 100 µM (inactive) | > 100 µM (inactive) | > 100 µM (inactive) | > 100 µM (inactive) | > 100 µM (inactive) |  | 
Cc1c2ccncc2c(C)c2c1[nH]c1ccc(OCCN(C)C)cc12 | 1.35 µM (inactive) | 0.333 µM (active) | 0.256 µM (active) | 0.0308 µM (active) | 0.729 µM (active) | 0.135 µM (active) | 0.391 µM (active) |  | 0.198 µM (active) | 0.365 µM (active) | 0.583 µM (active) | 0.0353 µM (active) | 1.19 µM (inactive) | 0.151 µM (active) | 0.463 µM (active) | 0.0455 µM (active) | 0.105 µM (active) | 0.641 µM (active) | 
O=C(O)C1CC2C=CCC(C2)C1 (stereo unspecified) | > 100 µM (inactive) | > 100 µM (inactive) | > 100 µM (inactive) | > 100 µM (inactive) | > 100 µM (inactive) | > 100 µM (inactive) | > 100 µM (inactive) | > 100 µM (inactive) | > 100 µM (inactive) | > 100 µM (inactive) | > 100 µM (inactive) | > 100 µM (inactive) |  | > 100 µM (inactive) | > 100 µM (inactive) | > 100 µM (inactive) | > 100 µM (inactive) | > 100 µM (inactive) | > 100 µM (inactive)
C[N+](C)(C)CC1CCC(C[N+](C)(C)C)C1=NO (stereo unspecified) | > 100 µM (inactive) | > 100 µM (inactive) | > 100 µM (inactive) |  | > 100 µM (inactive) | > 100 µM (inactive) | > 100 µM (inactive) | > 100 µM (inactive) | > 100 µM (inactive) | > 100 µM (inactive) |  | > 100 µM (inactive) | > 100 µM (inactive) | > 100 µM (inactive) |  | > 100 µM (inactive) | > 100 µM (inactive) | > 100 µM (inactive) | > 100 µM (inactive)
C[Si](C)(N[Si](C)(C)OCCc1ccccc1)OCCc1ccccc1 | > 100 µM (inactive) | > 100 µM (inactive) | > 100 µM (inactive) | > 100 µM (inactive) | > 100 µM (inactive) | > 100 µM (inactive) |  | > 100 µM (inactive) |  | > 100 µM (inactive) | > 100 µM (inactive) | > 100 µM (inactive) | > 100 µM (inactive) |  | > 100 µM (inactive) | > 100 µM (inactive) | > 100 µM (inactive) | > 100 µM (inactive) | 
C1CCCCc2nc3c(nc2CCC1)c1nc2c(nc1c1nc4c(nc31)CCCCCCCC4)CCCCCCCC2 |  |  | > 100 µM (inactive) | > 100 µM (inactive) | > 100 µM (inactive) |  |  | > 100 µM (inactive) | > 100 µM (inactive) |  | > 100 µM (inactive) | > 100 µM (inactive) | > 100 µM (inactive) | > 100 µM (inactive) | > 10 µM (inactive) | > 100 µM (inactive) | > 100 µM (inactive) | > 100 µM (inactive) | > 100 µM (inactive)
COC1(O)c2cccc(Cl)c2C(=O)N1C1(C(N)=O)CCCCC1 (stereo unspecified) | > 100 µM (inactive) | > 100 µM (inactive) | > 100 µM (inactive) | > 100 µM (inactive) | > 100 µM (inactive) | > 100 µM (inactive) | > 100 µM (inactive) |  | > 100 µM (inactive) | > 100 µM (inactive) | 24.4 µM (inactive) | > 100 µM (inactive) | > 100 µM (inactive) | > 100 µM (inactive) | > 100 µM (inactive) | > 100 µM (inactive) | > 100 µM (inactive) | > 100 µM (inactive) | 
CCN(CC)c1c(C(=O)/C=C/c2ccc(Cl)cc2)c(-c2ccccc2)nn(C)c1=O | 1.72 µM (inactive) | 2.16 µM (inactive) | 1.93 µM (inactive) | 1.93 µM (inactive) | 1.71 µM (inactive) | 1.66 µM (inactive) | 1.59 µM (inactive) | 1.85 µM (inactive) | 1.92 µM (inactive) | 2.05 µM (inactive) | 1.63 µM (inactive) | 2.16 µM (inactive) | 2.03 µM (inactive) | 1.7 µM (inactive) | 3.56 µM (inactive) | 1.67 µM (inactive) | 1.92 µM (inactive) | 1.73 µM (inactive) | 
CC(C)=CCC/C(C)=C/CC/C(C)=C/C(O)c1ccccc1 (stereo unspecified) | 16.6 µM (inactive) | 20.1 µM (inactive) | 20.2 µM (inactive) | 19.5 µM (inactive) | 17 µM (inactive) | > 10 µM (inactive) | > 10 µM (inactive) |  |  | 30.1 µM (inactive) |  | 20.2 µM (inactive) | 19.5 µM (inactive) | 18.9 µM (inactive) | > 10 µM (inactive) | 17.9 µM (inactive) | 23.6 µM (inactive) | 21 µM (inactive) | 20.7 µM (inactive)
CCCCCCCCCCNCCSSCc1ccc(Cl)cc1 | 0.509 µM (active) | 1.96 µM (inactive) | 1.71 µM (inactive) | 3.25 µM (inactive) | 0.407 µM (active) | 1.71 µM (inactive) | 1.61 µM (inactive) | 5.71 µM (inactive) | 1.85 µM (inactive) |  |  | 1.6 µM (inactive) | 10.2 µM (inactive) | 0.631 µM (active) | 2.18 µM (inactive) | 1.73 µM (inactive) | 1.36 µM (inactive) | 2.25 µM (inactive) | 
CC1SC2=NC3=C(c4ccccc4C3=O)C(c3ccccc3Cl)N2C1=O (stereo unspecified) | > 100 µM (inactive) | > 100 µM (inactive) | > 100 µM (inactive) | > 100 µM (inactive) | 80.2 µM (inactive) | 86.1 µM (inactive) | 30.8 µM (inactive) | > 100 µM (inactive) | > 100 µM (inactive) | > 100 µM (inactive) | 78.2 µM (inactive) | > 100 µM (inactive) | > 100 µM (inactive) | > 100 µM (inactive) | > 100 µM (inactive) | > 100 µM (inactive) | > 100 µM (inactive) | > 100 µM (inactive) | 
c1ccc(COc2cccc3ccc[n+](Cc4ccccc4)c23)cc1 |  |  | 3.52 µM (inactive) | 8.93 µM (inactive) | 4.6 µM (inactive) | 3.6 µM (inactive) | 1.95 µM (inactive) | 13.4 µM (inactive) | 7.46 µM (inactive) | 3.31 µM (inactive) | 3.41 µM (inactive) | 9.75 µM (inactive) | 16.6 µM (inactive) | 4.06 µM (inactive) |  |  | 3.41 µM (inactive) | 25.8 µM (inactive) | 
